Test results: patent USRE46698E1, “Use of cyclohexanol derivatives as antimicrobial active compounds” (MERCK PATENT GMBH, priority 2011, dated 2018)

Test: Rancimate assay, antioxidative capacity (Example 1)
Details: 0.1% w/w in soya oil; 120° C.; input of air 201/h
Procedure: The antioxidative capacity of substances I-9, I-10 and I-2 is determined in the so-called Rancimate assay. The comparative substances used are 4-t-butyl-1-cyclohexanol and tocopherol. The positive standard employed is BHT. The measurement parameter is the time duration (induction time) of the increase in the conductivity of unstabilised soya oil on exposure to air at elevated temperature. The longer the induction time, the greater the stabilising or antioxidant action. The following boundary conditions were maintained: input of air 201/h; temperature 120° C. and sample concentrations of 0.1% w/w each in soya oil. For each test substance, a relative antioxidation-protection factor is determined, which corresponds to the ratio of the induction times with and without test substance: […]

CCOC(=O)C1CCCCC1O (stereo not shown) [Substance I-2]
Antioxidation-protection factor (ratio of the induction times with and without test substance): 1.15
